Read-outs that look alike come from different tables or passages of the source.
Experiments:
SIVmac251.30.SG3 [1] = tested on: SIVmac251.30.SG3; set-up: method as in earlier work; settings: SIVmac251.30.SG3, clade NA; cited from earlier work
SIVmac251.30.SG3 [2] = assay: Neutralization assay, control virus SIVmac251.30.SG3; format: cell-based, SIV; settings: Simian immunodeficiency virus; SIVmac251.30.SG3, clade NA
Experimental: Neutralization was measured using single-round-of-infection HIV-1 Env-pseudoviruses and TZM-bl target cells (ARP Cat No. #8129)[44],[45]. Compounds were prepared at 400 μM with 4% DMSO (dimethyl sulfoxide) in PBS (phosphate-buffered saline) and diluted 20 times as the starting concentration for serial dilution in the neutralization assays. Pseudoviruses of ten strains from HIV-1 clades A, B, and C were incubated with serial dilutions of drug compounds, then added to TZM-bl target cells which have a luciferase reporter gene. After incubation at 37 °C for 2 days, infection of target cells was measured by luciferase activity. Neutralization curves were fit by nonlinear regression using a five-parameter hill slope equation[45].

SMILES	IC50 (SIVmac251.30.SG3 [1]) [µM]	IC50 (SIVmac251.30.SG3 [2]) [µM]
COc1cnc(-n2cnc(C)n2)c2[nH]cc(C(=O)C(=O)N3CCN(C(=O)c4ccccc4)CC3)c12 [BMS-626529]	> 20	
COc1cnc(-c2csc(C(=O)NCCO)n2)c2[nH]cc(C(=O)C(=O)N3CCC(=C(C#N)c4ccccc4)CC3)c12 [BMS-818251]		> 20

Source: PMC6318274, “Lattice engineering enables definition of molecular features allowing for potent small-molecule inhibition of HIV-1 entry” (Nature Communications, 2019)
